Calls of active or inactive are those of the source.
Experiments:
[1] = C. albicans growth with fluconazole, confirmation, fluorescence, retest (AID 2467); type: functional, cell-based
[2] = HepG2 cell cytotoxicity, dose response, cytotoxicity control for Shn3 inhibitor project, CellTiter-Glo, cherry-picked (AID 624134); type: functional, cell-based
INS1 = experiment: beta cell apoptosis inhibitors, cytokine rescue, dose response, luminescence, retest (AID 449756); type: functional, cell-based; settings: Rattus norvegicus;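 also: cell death triggered by IL-1 beta plus TNF-alpha plus IFN-gamma mixture; protective hits raise ATP signal compared with cytokine alone wells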
[3] = control 3'UTR Renilla luciferase suppression, dose response, counter-screen for Shn3 inhibitor project, cell-based, Clone20-Shn3RL, cherry-picked (AID 624133); type: functional
Exodeoxyribonuclease V = molecular target: T1, Exodeoxyribonuclease V (Escherichia coli (strain K12), UniProt P04993+P07648+P08394); experiment: E. coli RecBCD inhibitors, dose response, counter-screen for AddAB inhibitor project, absorbance, V66 E. coli, mutant T4 phage (AID 492957); type: functional, cell-based, Escherichia coli str. K-12 substr. MG1655
T1 sequence (P04993 whole entry): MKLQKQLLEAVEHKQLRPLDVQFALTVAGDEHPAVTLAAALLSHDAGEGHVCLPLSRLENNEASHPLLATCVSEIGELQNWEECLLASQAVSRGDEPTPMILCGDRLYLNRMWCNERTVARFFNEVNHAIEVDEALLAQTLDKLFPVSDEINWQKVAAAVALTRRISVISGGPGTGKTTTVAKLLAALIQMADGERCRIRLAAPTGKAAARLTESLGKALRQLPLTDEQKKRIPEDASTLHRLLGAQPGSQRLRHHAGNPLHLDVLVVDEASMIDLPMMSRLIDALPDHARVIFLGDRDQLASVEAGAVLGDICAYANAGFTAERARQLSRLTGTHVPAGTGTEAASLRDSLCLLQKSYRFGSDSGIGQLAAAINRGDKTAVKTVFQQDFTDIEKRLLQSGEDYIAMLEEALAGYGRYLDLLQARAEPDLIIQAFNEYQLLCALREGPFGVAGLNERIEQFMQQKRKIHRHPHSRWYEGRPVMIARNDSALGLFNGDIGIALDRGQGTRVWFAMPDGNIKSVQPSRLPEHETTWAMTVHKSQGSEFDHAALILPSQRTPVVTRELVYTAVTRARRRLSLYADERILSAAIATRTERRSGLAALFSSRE
T1 sequence (P07648 whole entry): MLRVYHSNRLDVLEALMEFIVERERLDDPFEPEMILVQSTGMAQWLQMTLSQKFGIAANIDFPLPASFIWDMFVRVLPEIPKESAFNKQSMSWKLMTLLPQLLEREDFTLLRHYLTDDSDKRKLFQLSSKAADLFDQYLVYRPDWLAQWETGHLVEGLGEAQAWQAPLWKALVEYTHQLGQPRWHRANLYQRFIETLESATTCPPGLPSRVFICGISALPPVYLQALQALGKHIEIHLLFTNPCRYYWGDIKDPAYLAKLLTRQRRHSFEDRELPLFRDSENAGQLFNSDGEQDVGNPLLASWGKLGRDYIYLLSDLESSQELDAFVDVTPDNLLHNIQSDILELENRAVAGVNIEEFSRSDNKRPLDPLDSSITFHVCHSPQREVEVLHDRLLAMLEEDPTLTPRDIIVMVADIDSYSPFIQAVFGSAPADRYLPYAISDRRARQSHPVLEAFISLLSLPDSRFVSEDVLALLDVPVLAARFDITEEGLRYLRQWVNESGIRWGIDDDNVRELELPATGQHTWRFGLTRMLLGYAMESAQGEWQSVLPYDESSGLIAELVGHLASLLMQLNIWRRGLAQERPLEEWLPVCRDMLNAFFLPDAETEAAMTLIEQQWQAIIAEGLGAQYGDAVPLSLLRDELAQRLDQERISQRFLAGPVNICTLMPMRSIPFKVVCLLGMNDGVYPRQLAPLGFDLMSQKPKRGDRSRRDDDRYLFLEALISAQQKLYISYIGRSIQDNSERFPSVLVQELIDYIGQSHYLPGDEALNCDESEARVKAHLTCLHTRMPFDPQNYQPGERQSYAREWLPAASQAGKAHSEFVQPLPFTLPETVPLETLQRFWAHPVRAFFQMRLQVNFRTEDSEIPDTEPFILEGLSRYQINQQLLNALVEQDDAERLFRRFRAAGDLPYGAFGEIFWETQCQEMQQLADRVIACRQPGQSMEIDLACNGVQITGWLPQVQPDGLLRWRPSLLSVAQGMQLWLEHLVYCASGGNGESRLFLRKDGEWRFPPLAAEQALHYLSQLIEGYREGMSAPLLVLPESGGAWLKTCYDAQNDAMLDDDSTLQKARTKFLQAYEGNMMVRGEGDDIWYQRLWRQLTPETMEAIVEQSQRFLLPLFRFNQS
T1 sequence (P08394 whole entry): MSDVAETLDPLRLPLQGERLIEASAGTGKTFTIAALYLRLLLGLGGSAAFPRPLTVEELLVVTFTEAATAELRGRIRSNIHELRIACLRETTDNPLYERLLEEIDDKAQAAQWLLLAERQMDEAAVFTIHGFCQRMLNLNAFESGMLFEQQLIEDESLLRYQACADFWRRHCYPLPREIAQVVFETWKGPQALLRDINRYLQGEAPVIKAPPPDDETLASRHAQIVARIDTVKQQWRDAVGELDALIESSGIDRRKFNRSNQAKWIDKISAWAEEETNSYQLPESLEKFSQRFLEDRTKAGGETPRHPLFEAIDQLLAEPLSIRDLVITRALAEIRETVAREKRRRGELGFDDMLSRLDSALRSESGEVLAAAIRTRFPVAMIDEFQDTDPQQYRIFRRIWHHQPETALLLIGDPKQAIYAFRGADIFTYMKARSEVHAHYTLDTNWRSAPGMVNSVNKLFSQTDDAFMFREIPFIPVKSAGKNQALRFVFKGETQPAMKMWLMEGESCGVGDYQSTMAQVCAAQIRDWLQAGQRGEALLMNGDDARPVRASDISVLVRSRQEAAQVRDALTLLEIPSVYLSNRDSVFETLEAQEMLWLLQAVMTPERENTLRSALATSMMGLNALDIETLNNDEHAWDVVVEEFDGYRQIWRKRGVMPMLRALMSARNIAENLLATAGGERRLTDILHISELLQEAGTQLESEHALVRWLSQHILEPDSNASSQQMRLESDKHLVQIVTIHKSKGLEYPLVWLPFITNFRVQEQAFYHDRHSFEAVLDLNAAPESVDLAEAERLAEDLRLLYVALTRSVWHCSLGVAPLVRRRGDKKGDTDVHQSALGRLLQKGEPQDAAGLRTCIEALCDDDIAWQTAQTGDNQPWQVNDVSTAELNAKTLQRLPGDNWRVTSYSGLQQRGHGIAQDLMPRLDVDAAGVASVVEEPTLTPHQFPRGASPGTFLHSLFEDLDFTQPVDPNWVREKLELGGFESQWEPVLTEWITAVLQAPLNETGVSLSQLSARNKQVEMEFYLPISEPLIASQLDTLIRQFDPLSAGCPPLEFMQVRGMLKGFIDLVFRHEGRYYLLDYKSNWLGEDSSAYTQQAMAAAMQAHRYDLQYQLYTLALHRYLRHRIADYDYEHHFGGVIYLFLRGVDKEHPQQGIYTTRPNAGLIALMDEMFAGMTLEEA

cells [4] = type: functional, cell-based
cells [5] = type: functional, cell-based; remark: listed apart in the source
[6] = NIH-3T3 fibroblast cytotoxicity, dose response, cytotoxicity control, cell-based, fluorescence, Alamar Blue, secondary assay (AID 2327); type: functional;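 also: NIH-3T3 mouse fibroblasts cultured with fluconazole at 8 µg/mL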
[7] = molecular target: Heat shock protein HSP 90-alpha (Homo sapiens, UniProt P07900); type: functional, organism-based
[8] = Counterscreen for AddAB inhibitors: absorbance-based bacterial cell-based high throughput dose response assay for inhibitors of bacterial viability. [Related pubchem assays (depositor defined):AID435030, AID449728, AID449731, AID488942, AID488955, AID488956]; type: functional
[9] = cytotoxicity toward NIH3T3 fibroblasts, dose response, counter-screen, cell-based, ATP luminescence, mouse fibroblasts (AID 2010); type: functional;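 also: cells exposed to compound for about 90 hours before reading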
HEK293 = experiment: inhibitors of LMP1-driven NF-kB reporter, dose response, cell-based, HEK293, luciferase, cherry-pick (AID 588343); type: functional; settings: Homo sapiens
[10] = inhibitors of intracellular T. cruzi replication, confirmation, NIH3T3 host cells, beta-gal luminescence (AID 2044); type: functional, cell-based;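 also: intracellular parasites grown in NIH/3T3 mouse fibroblasts as host cells; luminescent beta-galactosidase reporter signal from transgenic T. cruzi replicating inside host cells; inhibitors lower the luminescence signal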
[11] = Shn3 3'UTR reporter inhibitors, dose response, cell-based, Clone20 osteoblasts, firefly luciferase, cherry-picked (AID 624132); type: functional;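 also: firefly luciferase luminescence from reporter carrying the Shn3 3'UTR in osteoblasts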
CAAX prenyl protease 1 = molecular target: T2, CAAX prenyl protease 1 (Saccharomyces cerevisiae S288c, UniProt P47154); experiment: Ste24 protease inhibitors, dose response, biochemical, S. cerevisiae, plate reader, cherry-pick (AID 488815)
T2 sequence (P47154 whole entry): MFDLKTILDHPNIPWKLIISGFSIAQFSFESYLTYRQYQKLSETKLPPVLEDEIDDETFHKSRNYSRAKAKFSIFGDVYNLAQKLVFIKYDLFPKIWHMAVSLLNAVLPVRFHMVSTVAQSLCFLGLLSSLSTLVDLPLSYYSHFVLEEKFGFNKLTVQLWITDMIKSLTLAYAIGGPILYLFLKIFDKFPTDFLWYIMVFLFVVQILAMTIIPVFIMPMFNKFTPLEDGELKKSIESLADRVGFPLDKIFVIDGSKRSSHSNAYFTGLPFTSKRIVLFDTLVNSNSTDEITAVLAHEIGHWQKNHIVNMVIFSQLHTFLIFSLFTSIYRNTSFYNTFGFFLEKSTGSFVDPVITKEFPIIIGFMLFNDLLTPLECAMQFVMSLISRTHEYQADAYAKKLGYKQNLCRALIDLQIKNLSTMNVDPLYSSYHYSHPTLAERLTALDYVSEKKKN

[12] = molecular target: SWI/SNF-related matrix-associated actin-dependent regulator of chromatin subfamily A member 2 (Homo sapiens, UniProt P51531); experiment: Luminescence-based cell-based high throughput dose response assay to identify activators of the function of SWI/SNF related, matrix associated, actin dependent regulator of chromatin, subfamily a, member 2 (SMARCA2, BRM).; type: functional
CAAX prenyl protease 2 = molecular target: T3, CAAX prenyl protease 2 (Homo sapiens, UniProt Q9Y256); experiment: human Rce1 protease inhibitors, dose response, biochemical, yeast membranes, quenched-peptide fluorescence, cherry-pick (AID 588849)
T3 sequence (Q9Y256 whole entry): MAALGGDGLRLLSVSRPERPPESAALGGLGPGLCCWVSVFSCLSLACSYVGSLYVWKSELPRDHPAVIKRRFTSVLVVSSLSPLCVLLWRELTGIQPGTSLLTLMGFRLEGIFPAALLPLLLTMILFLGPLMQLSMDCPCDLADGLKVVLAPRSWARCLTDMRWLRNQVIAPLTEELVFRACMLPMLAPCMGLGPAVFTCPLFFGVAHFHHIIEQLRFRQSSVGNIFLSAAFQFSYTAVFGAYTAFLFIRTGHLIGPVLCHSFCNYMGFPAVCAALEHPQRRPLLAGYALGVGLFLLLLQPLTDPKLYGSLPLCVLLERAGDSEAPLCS

[13] = Counterscreen for activators of the function of SWI/SNF related, matrix associated, actin dependent regulator of chromatin, subfamily a, member 2 (SMARCA2, BRM): Luminescence-based cell-based high throughput dose response assay to identify non-selective compounds using the VP16 reporter assay.; type: functional
Trypsin = Trypsin (Sus scrofa, UniProt P00761); experiment: porcine trypsin inhibitors, dose response, selectivity assay for Rce1 protease inhibitor project, biochemical, quenched peptide fluorescence, cherry-pick (AID 488789)
[14] = HEp-2 cell cytotoxicity, dose response, cytotoxicity control for RSV inhibitor project, HTS (AID 2410); type: functional; settings: human respiratory syncytial virus
Vero = experiment: cells; type: functional; settings: Chlorocebus sabaeus

Chain of SWI/SNF-related matrix-associated actin-dependent regulator of chromatin subfamily A member 2 (P51531 whole entry): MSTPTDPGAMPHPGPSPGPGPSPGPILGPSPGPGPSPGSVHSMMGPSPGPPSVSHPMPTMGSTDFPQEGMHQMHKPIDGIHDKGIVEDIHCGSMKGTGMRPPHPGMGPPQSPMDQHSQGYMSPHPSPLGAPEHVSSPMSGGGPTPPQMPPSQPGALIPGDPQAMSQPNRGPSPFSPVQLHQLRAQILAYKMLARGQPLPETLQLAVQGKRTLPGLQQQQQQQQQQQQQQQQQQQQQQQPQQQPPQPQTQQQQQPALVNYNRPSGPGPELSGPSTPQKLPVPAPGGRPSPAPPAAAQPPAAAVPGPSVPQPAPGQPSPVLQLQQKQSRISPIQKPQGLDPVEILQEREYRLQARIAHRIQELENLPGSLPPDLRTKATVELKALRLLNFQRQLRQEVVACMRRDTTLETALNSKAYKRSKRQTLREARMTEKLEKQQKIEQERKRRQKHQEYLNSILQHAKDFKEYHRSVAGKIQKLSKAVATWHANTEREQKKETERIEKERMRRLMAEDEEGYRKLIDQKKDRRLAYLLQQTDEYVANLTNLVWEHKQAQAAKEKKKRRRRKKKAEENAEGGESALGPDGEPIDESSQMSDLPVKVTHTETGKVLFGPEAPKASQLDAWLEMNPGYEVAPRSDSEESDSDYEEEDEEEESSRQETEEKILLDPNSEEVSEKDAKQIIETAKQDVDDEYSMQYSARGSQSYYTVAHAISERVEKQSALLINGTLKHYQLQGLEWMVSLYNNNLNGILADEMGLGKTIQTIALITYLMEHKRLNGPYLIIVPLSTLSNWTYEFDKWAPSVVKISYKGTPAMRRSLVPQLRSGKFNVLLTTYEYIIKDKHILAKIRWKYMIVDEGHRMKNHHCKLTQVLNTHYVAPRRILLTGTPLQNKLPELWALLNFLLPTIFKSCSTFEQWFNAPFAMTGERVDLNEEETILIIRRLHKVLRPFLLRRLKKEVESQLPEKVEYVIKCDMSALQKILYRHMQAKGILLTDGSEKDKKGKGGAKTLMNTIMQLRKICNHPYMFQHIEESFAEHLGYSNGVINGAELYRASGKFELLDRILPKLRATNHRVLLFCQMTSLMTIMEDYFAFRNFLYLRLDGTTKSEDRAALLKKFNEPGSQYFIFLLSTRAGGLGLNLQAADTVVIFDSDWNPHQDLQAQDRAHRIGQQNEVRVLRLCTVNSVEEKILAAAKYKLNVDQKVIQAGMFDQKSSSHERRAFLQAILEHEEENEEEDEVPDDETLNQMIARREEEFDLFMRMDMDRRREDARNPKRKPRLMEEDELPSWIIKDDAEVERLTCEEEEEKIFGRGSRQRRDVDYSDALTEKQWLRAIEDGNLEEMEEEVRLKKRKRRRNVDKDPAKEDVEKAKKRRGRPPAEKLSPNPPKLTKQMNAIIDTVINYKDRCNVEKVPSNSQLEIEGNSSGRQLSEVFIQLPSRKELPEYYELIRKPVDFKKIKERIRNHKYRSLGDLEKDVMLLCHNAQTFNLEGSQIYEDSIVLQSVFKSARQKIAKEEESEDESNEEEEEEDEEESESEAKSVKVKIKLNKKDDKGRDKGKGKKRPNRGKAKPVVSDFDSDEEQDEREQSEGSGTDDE
Chain of Trypsin (P00761 whole entry): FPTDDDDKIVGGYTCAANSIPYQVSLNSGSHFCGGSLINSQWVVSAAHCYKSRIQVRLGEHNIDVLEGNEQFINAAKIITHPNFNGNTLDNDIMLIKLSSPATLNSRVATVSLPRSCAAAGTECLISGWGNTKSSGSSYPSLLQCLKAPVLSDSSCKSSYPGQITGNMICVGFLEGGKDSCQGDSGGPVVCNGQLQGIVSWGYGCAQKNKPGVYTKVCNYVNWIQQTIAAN

With `CCC(=O)NC(c1ccc(Cl)cc1Cl)c1ccc2cccnc2c1O` (stereo unspecified) the EC50 [1] was 0.354 µM (active), the AC50 [2] was 28.8 µM (active) and the AC50 (INS1) was 0.478 µM (active). For the same molecule, the AC50 [3] was 1.33 µM (active), the IC50 (Exodeoxyribonuclease V) was > 119 µM (inactive) and the EC50 (cells [4]) was > 350 µM (not active). The EC50 (cells [5]) was 7.3 µM (active), the EC50 [6] was 3.86 µM (inconclusive) and the AC50 [7] was 3.22 µM (active). For the same molecule, the IC50 [8] was > 119 µM (inactive), the EC50 [9] was 0.434 µM (active) and the AC50 (HEK293) was 4.55 µM (active). The EC50 [10] was 0.296 µM (active) and the AC50 [11] was 1.19 µM (active).

With `NS(=O)(=O)c1ccc(N/N=C/c2cn(-c3ccccc3)nc2-c2cccs2)cc1` the AC50 (CAAX prenyl protease 1) was 7.44 µM (active), the EC50 [12] was > 91.2 µM (inactive) and the AC50 (CAAX prenyl protease 2) was 16.7 µM (active). The EC50 [13] was > 91.2 µM (inactive), the AC50 (Trypsin) was 7.03 µM (active) and the CC50 [14] was 12.2 µM (active). For the same molecule, the CC50 (Vero) was 11.3 µM (active).
